The test system of one experiment is human C1q. In words: Reverse ELISA: inhibition of PAP immune complex binding to C1q coated plates. Conditions: for OD 405 nm: PAP pre-incubated with peptide or C1q one hour, 30 min on C1q plates, lower OD = more inhibition, positive control 2.355; for inhibition of C1q binding (in words): ranking among peptides of Table 1. The text has this:
(§1) For this reason, a “reverse ELISA” technique was used to assess binding of the Fc region to ligands that bind to immune complexed IgG Fc. In a reverse ELISA, the enzyme (e.g., HRP) is not covalently conjugated to the Fc portion of the secondary antibody. Rather, a preformed immune complex of peroxidase-rabbit (or mouse) anti-peroxidase IgG (“PAP” complex) is used. […] In these experiments, an Fe CH2-CH3 cleft binding ligand (e.g., purified human C1q) was bound to microwell plates. In the absence of competitor, PAP complexes bound to the immobilized ligand and the reaction between HRP and its substrate produced a signal. This signal was reduced by polypeptides and compounds provided herein that inhibited PAP binding to the immobilized ligand.
PAP complexes were formed mixing 2 μl of rabbit anti-peroxidase (Sigma Chemicals, St. Louis, Mo.) with 50 μl of peroxidase (Sigma-Aldrich, St. Louis, Mo.) in 1 ml distilled water. PAP (100 μl) were pre-incubated with 100 μl of peptide for one hour, 100 μl were pre-incubated with 100 μl of peptide or human C1q (Quidel Corp., San Diego, Calif.) for one hour. The C1q/PAP and peptide/PAP mixtures (100 μl) were incubated with C1q coated plates for 30 minutes. After washing, plates were incubated with ATBS (Quidel Corp.) for 15 minutes and read at 405 nm.
In general terms: An ELISA detects its analyte on a solid surface through an enzyme-linked reagent.

In a further experiment the test system is FcγIIb. In words: Reverse ELISA: inhibition of PAP immune complex binding to FcγIIb coated plates. Conditions: PAP pre-incubated with peptide one hour; lower OD = more inhibition; positive control 1.394.
Text: as §1
(§2) Once the reverse ELISA protocol was established using the C1q assay, the assay was redesigned using FcγIIa, FcγIIb, and FcγIII in place of C1q. Highly purified FcγIIa, FcγIIb and FcγIII were immunoadsorbed onto plastic microwells. After optimizing the FcγR reverse ELISA system, simple competitive inhibition experiments using polypeptides provided herein were conducted to investigate their ability to inhibit binding of immune complexes to purified FcγR.
(§3) Falcon microtiter plates were coated with 1:10 dilutions of highly purified FcγIIa, FcγIIb and FcγIII and incubated for 24 hours. The plates were washed and then blocked with 5×BSA blocking solution (Alpha Diagnostic International, San Antonio, Tex.) for 24 hours. PAP immune complexes were formed as described above. PAP (100 μl) were pre-incubated with 100 μl of peptide for one hour. PAP/peptide mixtures were added to the FcγR coated plates and incubated for one hour. After washing, plates were incubated with ABTS substrate for 15 minutes and read at 405 nm.

A further experiment deals with FcγIIa. The experiment can be described thus: Reverse ELISA: inhibition of PAP immune complex binding to FcγIIa coated plates. The note with it: PAP pre-incubated with peptide one hour; lower OD = more inhibition; positive control 1.599.
Text: as §1, §2, §3

A further experiment concerns FcγIII. In words: Reverse ELISA: inhibition of PAP immune complex binding to FcγIII coated plates. The note with it: PAP pre-incubated with peptide one hour; lower OD = more inhibition; positive control 1.588.
Text: as §1, §2, §3

Experiment [1] relates to apo monomeric mutant SOD1 C57S (mSOD1C57S). The experiment can be described thus: Reverse ELISA: inhibition of immune complexed IgG (PAP) binding to mSOD1C57S coated plates. The note with it: for mSOD1C57S (OD read at 405 nm): PAP pre-incubated with peptide one hour, 60 min on plates, positive control […]; for inhibition of mSOD1C57S binding to PAP (in words): ranking among peptides of Table 3. Here is the method:
(§4) PAP complexes were prepared as described in Example 2. PAP (100 μl) were pre-incubated with 100 μl of peptide for one hour, and control (200 μl of PAP) also was incubated for one hour. 100 μl of either PAP or PAP/peptide was added to Falcon microtiter plates that had been coated for 24 hours with either 0.8 μg/ml human wtSOD1 (Sigma-Aldrich) or apo (non Cu, Zn containing) monomeric mutant SOD1 C57S (mSOD1C57S). The PAP or peptide/PAP mixtures (100 μl) were added after one hour to either wt SOD1 or mSOD1C57S coated plates for 60 minutes. After washing, plates were incubated with ATBS for 15 minutes and read at 405 nm.

The next experiment relates to IgG Fc. The experiment can be described thus: Alanine substitution, binding of SEQ ID NO:16 to IgG Fc. Conditions: alanine substitution of IgG Fc Asn-434, His-435, or Tyr-436.
The subject of another experiment is human wtSOD1. The experiment can be described thus: Reverse ELISA: inhibition of immune complexed IgG (PAP) binding to wt SOD1 coated plates. Conditions: for wt SOD1 (OD read at 405 nm): PAP pre-incubated with peptide one hour, 60 min on plates, positive control 2.900; for inhibition of wt SOD1 binding to PAP (in words): ranking among peptides of Table 3. The method, then:
as §4

In a further experiment the test system is FcR. The experiment can be described thus: FcγR reverse ELISA, overall statement on FcR binding to PAP. Conditions: ranking among peptides of Table 2. Here is the method: as §2, §3
The target in experiment [2] is human C1q (Quidel Corp.) (human) (UniProt P02745). The experiment can be described thus: reverse ELISA: PAP without competitor on C1q-coated plate.
Another experiment has as its target FcγIII (highly purified). The experiment can be described thus: reverse ELISA: PAP without competitor on FcγIII-coated plate.
The target in the next experiment is FcγIIa (highly purified). In words: reverse ELISA: PAP without competitor on FcγIIa-coated plate.
The target of a further experiment is FcγIIb (highly purified). The experiment can be described thus: reverse ELISA: PAP without competitor on FcγIIb-coated plate.
In experiment [3] the target is preformed immune complex of peroxidase-rabbit anti-peroxidase IgG (PAP complex) (rabbit; horseradish) (UniProt P00433). The experiment can be described thus: competition reverse ELISA: PAP pre-incubated with peptide, residual PAP binding to FcγIII-coated plate (competitor: immobilized FcγIII).
Experiment [4] has the same target. The experiment can be described thus: competition reverse ELISA: PAP pre-incubated with peptide, residual PAP binding to wt SOD1-coated plate (competitor: immobilized wt SOD1).
Experiment [5] shares this target. The experiment can be described thus: competition reverse ELISA: PAP pre-incubated with peptide, residual PAP binding to C1q-coated plate (competitor: immobilized C1q).
Experiment [6] shares this target. The experiment can be described thus: competition reverse ELISA: PAP pre-incubated with peptide, residual PAP binding to FcγIIa-coated plate (competitor: immobilized FcγIIa).
The target is the same in experiment [7]. In words: competition reverse ELISA: PAP pre-incubated with peptide, residual PAP binding to FcγIIb-coated plate (competitor: immobilized FcγIIb).
For experiment [8] the target is unchanged. In words: competition reverse ELISA: PAP pre-incubated with peptide, residual PAP binding to mSOD1C57S-coated plate (competitor: immobilized mSOD1C57S).

No end group written: not given here.

Sequence of preformed immune complex of peroxidase-rabbit anti-peroxidase IgG (PAP complex) (rabbit; horseradish) (P00433 31-338, one chain of several): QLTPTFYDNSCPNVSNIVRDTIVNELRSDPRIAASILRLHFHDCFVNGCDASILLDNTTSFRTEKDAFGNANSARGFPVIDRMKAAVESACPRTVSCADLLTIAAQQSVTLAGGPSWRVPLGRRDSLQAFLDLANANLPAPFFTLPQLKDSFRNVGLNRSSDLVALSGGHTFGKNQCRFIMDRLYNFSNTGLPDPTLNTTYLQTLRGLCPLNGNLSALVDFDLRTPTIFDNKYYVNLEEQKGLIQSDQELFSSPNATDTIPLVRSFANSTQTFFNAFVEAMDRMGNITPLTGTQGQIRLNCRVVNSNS
Sequence of FcγIIb (highly purified) (P31994 43-310): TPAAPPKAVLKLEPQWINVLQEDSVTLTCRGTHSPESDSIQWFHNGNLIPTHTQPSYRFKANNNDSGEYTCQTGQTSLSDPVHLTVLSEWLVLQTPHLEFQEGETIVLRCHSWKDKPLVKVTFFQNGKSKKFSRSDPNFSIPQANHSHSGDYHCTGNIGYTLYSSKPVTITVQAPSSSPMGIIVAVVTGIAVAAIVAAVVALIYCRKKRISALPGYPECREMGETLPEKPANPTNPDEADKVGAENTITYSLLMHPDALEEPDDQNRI
Sequence of FcγIIa (highly purified) (P12318 34-317): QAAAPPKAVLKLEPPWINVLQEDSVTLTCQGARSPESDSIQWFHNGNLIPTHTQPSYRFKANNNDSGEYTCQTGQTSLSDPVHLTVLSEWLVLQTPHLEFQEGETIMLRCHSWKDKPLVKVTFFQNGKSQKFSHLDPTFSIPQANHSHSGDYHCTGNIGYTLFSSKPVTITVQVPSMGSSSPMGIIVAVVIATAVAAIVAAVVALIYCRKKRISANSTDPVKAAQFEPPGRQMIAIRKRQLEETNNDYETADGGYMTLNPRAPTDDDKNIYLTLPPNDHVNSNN
Sequence of human C1q (Quidel Corp.) (human) (P02745 23-245 limits assumed, chain 1 of 3): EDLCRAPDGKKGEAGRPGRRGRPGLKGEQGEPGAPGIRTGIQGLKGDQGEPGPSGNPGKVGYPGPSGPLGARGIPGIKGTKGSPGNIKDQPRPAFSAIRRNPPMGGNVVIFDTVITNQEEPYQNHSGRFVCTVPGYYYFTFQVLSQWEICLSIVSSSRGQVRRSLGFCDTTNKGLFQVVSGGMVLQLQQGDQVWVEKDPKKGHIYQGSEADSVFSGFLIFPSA
Sequence of human C1q (Quidel Corp.) (human) (P02746 28-253 limits assumed, chain 2 of 3, further chain): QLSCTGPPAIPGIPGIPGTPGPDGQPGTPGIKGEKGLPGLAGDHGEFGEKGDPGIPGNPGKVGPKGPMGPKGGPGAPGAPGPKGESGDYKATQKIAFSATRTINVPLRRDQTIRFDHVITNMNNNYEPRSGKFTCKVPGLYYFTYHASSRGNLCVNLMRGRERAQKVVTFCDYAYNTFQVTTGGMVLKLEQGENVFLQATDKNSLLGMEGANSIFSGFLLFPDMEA
Sequence of human C1q (Quidel Corp.) (human) (P02747 29-245 limits assumed, chain 3 of 3, further chain): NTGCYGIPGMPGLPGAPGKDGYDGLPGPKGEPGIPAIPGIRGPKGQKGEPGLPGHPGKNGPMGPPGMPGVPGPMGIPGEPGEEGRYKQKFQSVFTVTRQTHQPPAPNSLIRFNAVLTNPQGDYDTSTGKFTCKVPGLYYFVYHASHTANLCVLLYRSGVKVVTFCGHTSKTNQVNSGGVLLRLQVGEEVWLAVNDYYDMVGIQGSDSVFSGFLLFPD

Take “APPCAFHLGELVWCT (not fully specified; cysteine pairing not given here) [SEQ ID NO:15]”: the “OD 405 nm” value with human C1q was 0.983. Also, the “FcγIIb (OD read at 405 nm)” value in the experiment on FcγIIb was found to be 0.380. Further, the “FcγIIa (OD read at 405 nm)” value in the experiment on FcγIIa was 0.605. The “FcγIII (OD read at 405 nm)” value with FcγIII is reported as 0.880.

On to APPCARHLGELVWCT [SEQ ID NO:14], for which, in the experiment on human C1q, the “OD 405 nm” value is on record as 0.567 and the “inhibition of C1q binding (in words)” value is reported as “next best result”. Moreover, the “FcγIIb (OD read at 405 nm)” value in the experiment with FcγIIb was determined as 0.768. Besides, the “FcγIIa (OD read at 405 nm)” value in the experiment with FcγIIa was found to be 0.956. Moreover, in the experiment on FcγIII, the “FcγIII (OD read at 405 nm)” value stood at 0.709.

For APPCAWHLGELVWCT [SEQ ID NO:13], the “OD 405 nm” value in the experiment with human C1q is recorded as 1.148. In addition, the “FcγIIb (OD read at 405 nm)” value in the experiment with FcγIIb was found to be 0.562. Further, the “FcγIIa (OD read at 405 nm)” value in the experiment on FcγIIa was 0.658. In addition, the “FcγIII (OD read at 405 nm)” value with FcγIII turned out to be 0.530.

With “Ala-Pro-Pro-Asp-Cys-Ala-Trp-His-Leu-Gly-Glu-Leu-Val-Trp-Cys-Thr (APPDCAWHLGELVWCT) [SEQ ID NO:16]”, in experiment [1], the “mSOD1C57S (OD read at 405 nm)” value was 0.226 and the “inhibition of mSOD1C57S binding to PAP (in words)” value (“inhibition of mSOD1C57S binding” for short) is “greatest inhibition”. Moreover, in experiment [1] (listed as 16), the “inhibition of mSOD1C57S binding” value is “best inhibition”. Besides, in the experiment with human C1q, the “OD 405 nm” value came out at 0.389 and the “inhibition of C1q binding (in words)” value is listed as “greatest inhibition”. Also, the “FcγIIb (OD read at 405 nm)” value in the experiment with FcγIIb is given as 0.496. The “ΔΔG, disruption of binding” value in the experiment on IgG Fc is given as no less than 1.5 kcal/mol. Moreover, in the experiment on human wtSOD1, the “wt SOD1 (OD read at 405 nm)” value turned out to be 0.277 and the “inhibition of wt SOD1 binding to PAP (in words)” value (“inhibition of wt SOD1 binding” below) was “greatest inhibition”. Besides, in the experiment on human wtSOD1 (listed as 16), the “inhibition of wt SOD1 binding” value is listed as “best inhibition”. In addition, the “inhibition of FcR binding to PAP (in words)” value in the experiment on FcR is given as “greatest inhibition”. Moreover, the “FcγIIa (OD read at 405 nm)” value in the experiment with FcγIIa is 0.509. For the same molecule, in the experiment with FcγIII, the “FcγIII (OD read at 405 nm)” value was 0.670.

Regarding “Asp-Cys-Ala-Phe-His-Leu-Gly-Glu-Leu-Val-Trp-Cys-Thr (DCAFHLGELVWCT) [SEQ ID NO:3]”, the “OD 405 nm” value in the experiment with human C1q is 0.859. Besides, the “FcγIIb (OD read at 405 nm)” value in the experiment on FcγIIb was determined as 0.510. Further, the “FcγIIa (OD read at 405 nm)” value with FcγIIa worked out at 0.660. The “FcγIII (OD read at 405 nm)” value in the experiment on FcγIII came out at 0.810.

Take “Asp-Cys-Ala-Trp-His-Leu-Gly-Glu-Leu-Val-Trp-Cys-Thr [SEQ ID NO:2]”: in experiment [1], the “mSOD1C57S (OD read at 405 nm)” value is 0.592. Further, the “inhibition of mSOD1C57S binding” value in experiment [1] (listed as 2) was “inhibited”. The “OD 405 nm” value in the experiment on human C1q came out at 1.100. Besides, in the experiment on FcγIIb, the “FcγIIb (OD read at 405 nm)” value is given as 0.532. Besides, the “wt SOD1 (OD read at 405 nm)” value in the experiment on human wtSOD1 was determined as 0.292. Further, the “inhibition of wt SOD1 binding” value in the experiment with human wtSOD1 (listed as 2) was “inhibited”. Moreover, the “FcγIIa (OD read at 405 nm)” value with FcγIIa was determined as 0.561. Also, the “FcγIII (OD read at 405 nm)” value in the experiment on FcγIII turned out to be 0.741.

For the molecule “preformed immune complex of peroxidase-rabbit anti-peroxidase IgG (PAP complex) (from UniProt P00433 31-338) (antibody)”, the OD 405 nm in experiment [2] worked out at 2.35 OD 405 nm; with FcγIII (highly purified), 1.59 OD 405 nm; in the experiment with FcγIIa (highly purified), 1.6 OD 405 nm; with FcγIIb (highly purified), 1.39 OD 405 nm.

B1: Peptide … (SEQ ID NO:16) (peptide)
peptide: APPDCAWHLGELVWCT
Take B1: the OD 405 nm in experiment [3] came out at 0.67 OD 405 nm; in [4] it was 0.277 OD 405 nm; in experiment [5] it was 0.389 OD 405 nm; in [6], 0.509 OD 405 nm; in experiment [7] it was 0.496 OD 405 nm; in experiment [8] it was 0.226 OD 405 nm.

B2: Peptide … (SEQ ID NO:14) (peptide)
peptide: APPCARHLGELVWCT
modifications: not fully specified; cysteine pairing not given here
B2: the OD 405 nm in experiment [3] is 0.709 OD 405 nm; in [5] it was 0.567 OD 405 nm; in [6], 0.956 OD 405 nm; in experiment [7], 0.768 OD 405 nm.

B3: Peptide … (SEQ ID NO:13) (peptide)
peptide: APPCAWHLGELVWCT
modifications: not fully specified; cysteine pairing not given here
B3: the OD 405 nm is 0.53 OD 405 nm in [3], 1.15 OD 405 nm in experiment [5], 0.658 OD 405 nm in experiment [6] and 0.562 OD 405 nm in [7].

B4: Peptide … (SEQ ID NO:15) (peptide)
peptide: APPCAFHLGELVWCT
modifications: not fully specified; cysteine pairing not given here
With B4, the OD 405 nm in [3] is 0.88 OD 405 nm; in [5], 0.983 OD 405 nm; in [6], 0.605 OD 405 nm; in experiment [7], 0.38 OD 405 nm.

B5: Peptide … (SEQ ID NO:3) (peptide)
peptide: DCAFHLGELVWCT
Take B5: the OD 405 nm in experiment [3] worked out at 0.81 OD 405 nm; in [5], 0.859 OD 405 nm; in experiment [6] it was 0.66 OD 405 nm; in experiment [7], 0.51 OD 405 nm.
